Results as given in ChEMBL document CHEMBL1201862, “PubChem BioAssay data set” (2004).
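Method: 48-hour compound exposure of cells in 96-well plates, five concentrations, linear interpolation of endpoints. At the GI50, growth is halved.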 The source made the active and inactive calls. Cut-off read from the data, not from the text of the source: active = GI50 up to about 1.1 µM and inactive = higher.

Assays:
Test in all cases: inhibition of tumour cell growth, NCI panel, 48 h
ACHN = system: ACHN
BT-549 = system: BT-549
CAKI-1 = system: CAKI-1
CCRF-CEM = system: CCRF-CEM
COLO 205 = system: COLO 205
DU-145 = system: DU-145
EKVX = system: EKVX
HCC 2998 = system: HCC 2998
HCT-15 = system: HCT-15
HL-60 = system: HL-60
K562 = system: K562
KM12 = system: KM12
NCI-H226 = system: NCI-H226
NCI-H522 = system: NCI-H522
OVCAR-8 = system: OVCAR-8
SNB-19 = system: SNB-19
T47D = system: T47D
U-251 = system: U-251
UACC-257 = system: UACC-257
UO-31 = system: UO-31

SMILES | GI50 (ACHN) | GI50 (BT-549) | GI50 (CAKI-1) | GI50 (CCRF-CEM) | GI50 (COLO 205) | GI50 (DU-145) | GI50 (EKVX) | GI50 (HCC 2998) | GI50 (HCT-15) [µM] | GI50 (HL-60) | GI50 (K562) | GI50 (KM12) | GI50 (NCI-H226) | GI50 (NCI-H522) | GI50 (OVCAR-8) | GI50 (SNB-19) | GI50 (T47D) | GI50 (U-251) | GI50 (UACC-257) | GI50 (UO-31)
CN(C)CCNc1ccc2c(=O)n(CCN(C)C)c(=O)n3c4ccccc4c(=O)c1c23 | 0.0161 µM (active) | 0.238 µM (active) | 0.0133 µM (active) | < 0.01 µM (active) | 0.17 µM (active) | 0.0197 µM (active) | 0.174 µM (active) | < 0.0164 µM (active) | 0.0815 | < 0.01 µM (active) | 0.0133 µM (active) | 0.116 µM (active) | 0.0603 µM (active) | 0.0689 µM (active) | 0.0711 µM (active) | 0.137 µM (active) | 0.133 µM (active) | 0.0402 µM (active) | 0.34 µM (active) | 0.166 µM (active)
COC(=O)C(Cc1ccc(OC)cc1O)NC(=O)OC(C)(C)C (stereo not given) | > 100 µM (inactive) | > 100 µM (inactive) | > 100 µM (inactive) | > 100 µM (inactive) | > 100 µM (inactive) | > 100 µM (inactive) | > 100 µM (inactive) | > 100 µM (inactive) | > 100 | > 100 µM (inactive) | > 100 µM (inactive) | > 100 µM (inactive) | > 100 µM (inactive) | 96.6 µM (inactive) | > 100 µM (inactive) | > 100 µM (inactive) | > 100 µM (inactive) | > 100 µM (inactive) | 22.1 µM (inactive) | > 100 µM (inactive)
COc1ccc(/C=C2\CCCC(CN(C)C)C2=O)cc1 (stereo not given) | 2.29 µM (inactive) | 1.92 µM (inactive) | 1.69 µM (inactive) | 0.971 µM (active) | 2.1 µM (inactive) | 16.6 µM (inactive) | 10.2 µM (inactive) | 6.71 µM (inactive) | 1.24 | 0.618 µM (active) | 1.24 µM (inactive) | 1.3 µM (inactive) | 18.1 µM (inactive) | 1.37 µM (inactive) | 3.64 µM (inactive) | 7.36 µM (inactive) | 2.17 µM (inactive) | 1.95 µM (inactive) | 3.26 µM (inactive) | 3.63 µM (inactive)
CC(Oc1ccccc1)C(=O)NNC(=O)OC(C)(C)C (stereo not given) | > 100 µM (inactive) | > 100 µM (inactive) | > 100 µM (inactive) | > 100 µM (inactive) | > 100 µM (inactive) | > 100 µM (inactive) | > 100 µM (inactive) | > 100 µM (inactive) | > 100 | > 100 µM (inactive) | > 100 µM (inactive) | > 100 µM (inactive) | > 100 µM (inactive) | > 100 µM (inactive) | > 100 µM (inactive) | > 100 µM (inactive) | > 100 µM (inactive) | > 100 µM (inactive) | > 100 µM (inactive) | > 100 µM (inactive)
CC(C)[Si]1(C(C)C)OCC2OC(N3C(=O)NC(=O)C[C@@H]3C(O)c3ccccc3)CC2O[Si](C(C)C)(C(C)C)O1 (stereo not given in full) | 7.11 µM (inactive) | 18.1 µM (inactive) | 15.4 µM (inactive) | 2.54 µM (inactive) | 9.86 µM (inactive) | 13.2 µM (inactive) | 8.2 µM (inactive) | 2.05 µM (inactive) | 5.42 | 2.65 µM (inactive) | 2.76 µM (inactive) | 2.4 µM (inactive) | 2.15 µM (inactive) | 3.18 µM (inactive) | 6.19 µM (inactive) | 9.93 µM (inactive) | 2.69 µM (inactive) | 3.24 µM (inactive) | 4.85 µM (inactive) | 10.8 µM (inactive)
CC(C)OP(=O)(CCCCCCCCC/C=C/c1ccc2c(c1)OCCOCCOCCOCCO2)OC(C)C | 3.48 µM (inactive) | 3.03 µM (inactive) | 3.51 µM (inactive) | 2.71 µM (inactive) | 1.99 µM (inactive) | 4.59 µM (inactive) | 3.79 µM (inactive) | 4.04 µM (inactive) | 2.46 | 7.67 µM (inactive) | 6.37 µM (inactive) | 2.8 µM (inactive) | 3.37 µM (inactive) | 2.76 µM (inactive) | 3.15 µM (inactive) | 3.41 µM (inactive) | 2.79 µM (inactive) | 2.75 µM (inactive) | 2.88 µM (inactive) | 2.72 µM (inactive)
COC(=O)N/N=C(/c1nc2ccc([N+](=O)[O-])cc2nc1O)C(O)c1ccc(OC)c(OC)c1 (stereo not given) | > 100 µM (inactive) | > 100 µM (inactive) | > 100 µM (inactive) | 37.8 µM (inactive) | 39.4 µM (inactive) | > 100 µM (inactive) | > 100 µM (inactive) | > 100 µM (inactive) | 46.8 | > 68.5 µM (inactive) | 55.2 µM (inactive) | 49.9 µM (inactive) | > 100 µM (inactive) | 40.5 µM (inactive) | > 100 µM (inactive) | > 100 µM (inactive) | 80 µM (inactive) | > 100 µM (inactive) | 47.1 µM (inactive) | > 100 µM (inactive)
COC(=O)c1ccccc1CC1Cc2ccc3c(c2C1=O)CCC3 (stereo not given) | 41.5 µM (inactive) | 34.7 µM (inactive) | 55.1 µM (inactive) | 55.8 µM (inactive) | 29.9 µM (inactive) | > 100 µM (inactive) | 25.6 µM (inactive) | 28.2 µM (inactive) | 50 | 16.6 µM (inactive) | 33.2 µM (inactive) | 64.9 µM (inactive) | 77.8 µM (inactive) | 22.1 µM (inactive) | 49.5 µM (inactive) | > 100 µM (inactive) | 19.7 µM (inactive) | 51.1 µM (inactive) | 32.4 µM (inactive) | 49.4 µM (inactive)
C[C@@H]1CCC([C@@H](C)[C@H]2CC[C@H]3[C@@H]4CC[C@H]5C[C@@H](O)CC[C@]5(C)[C@H]4CC[C@]23C)=NC1 | 14 µM (inactive) | 25.6 µM (inactive) | 12.7 µM (inactive) | > 41.1 µM (inactive) | 8.15 µM (inactive) | > 47 µM (inactive) | 12.4 µM (inactive) | 6.52 µM (inactive) | 2.76 | 1.36 µM (inactive) | 3.68 µM (inactive) | 5.06 µM (inactive) | > 29.8 µM (inactive) | 3.96 µM (inactive) | 8.11 µM (inactive) | 10.6 µM (inactive) | 12.7 µM (inactive) | 8.63 µM (inactive) | 25.3 µM (inactive) | 10.4 µM (inactive)
O=C(/C=C/c1ccccc1)c1ccccc1 [CHALCONE] | > 10 µM (inactive) | > 10 µM (inactive) | > 10 µM (inactive) | > 4.83 µM (inactive) | > 10 µM (inactive) | > 10 µM (inactive) | > 10 µM (inactive) | > 10 µM (inactive) | > 10 | 4.07 µM (inactive) | > 4.84 µM (inactive) | 3.78 µM (inactive) | > 10 µM (inactive) | > 10 µM (inactive) | > 10 µM (inactive) | > 10 µM (inactive) | > 10 µM (inactive) | > 10 µM (inactive) | > 10 µM (inactive) | > 10 µM (inactive)
COc1ccc(OC)c(CCc2cc(OC)ccc2OC)c1 | > 6.93 µM (inactive) | > 5.4 µM (inactive) | 3.92 µM (inactive) | 2.9 µM (inactive) | 1.29 µM (inactive) | 5.19 µM (inactive) | 7.53 µM (inactive) | 3.79 µM (inactive) | 0.34 | 1.5 µM (inactive) | 0.912 µM (active) | 0.12 µM (active) | 5.33 µM (inactive) | 1.39 µM (inactive) | 2.86 µM (inactive) | 4.8 µM (inactive) | > 2.12 µM (inactive) | 4.81 µM (inactive) | 5.38 µM (inactive) | 5.55 µM (inactive)
C=C(O)c1ccccc1C#Cc1ccccc1C(=O)OC | > 10 µM (inactive) | > 10 µM (inactive) | > 10 µM (inactive) | > 10 µM (inactive) | > 10 µM (inactive) | > 10 µM (inactive) | > 10 µM (inactive) | > 10 µM (inactive) | > 10 | > 10 µM (inactive) | > 10 µM (inactive) | > 10 µM (inactive) | > 10 µM (inactive) | > 10 µM (inactive) | > 10 µM (inactive) | > 10 µM (inactive) | > 10 µM (inactive) | > 10 µM (inactive) | > 10 µM (inactive) | > 10 µM (inactive)
COc1ccc2c(c1)CC[C@@H]1[C@@H]2CC[C@]2(C)/C(=N/OCCN3CCCCC3)CC[C@@H]12 | 8.81 µM (inactive) | 12.8 µM (inactive) | 1.94 µM (inactive) | 3.28 µM (inactive) | 1.55 µM (inactive) | 3.85 µM (inactive) | 8.32 µM (inactive) | 2.89 µM (inactive) | 2.03 | 2.79 µM (inactive) | 2.79 µM (inactive) | 3.61 µM (inactive) | 5.43 µM (inactive) | 5.27 µM (inactive) | 9.79 µM (inactive) | 7.45 µM (inactive) | 5.46 µM (inactive) | 8.09 µM (inactive) | 2.55 µM (inactive) | 3.19 µM (inactive)
